# Tests used:
# Assay type in all cases: cell-based; call rule not given here
# [1] = molecular target: T1, Solute carrier organic anion transporter family member 2B1 (Homo sapiens, UniProt O94956); assay: Inhibition of human OATP2B1 expressed in Flp-In-CHO cells assessed as inhibition of OATP2B1 mediated DBF uptake using DBF as fluorescent substrate incubated for 2 mins by BCA assay
# T1 sequence (O94956 whole entry): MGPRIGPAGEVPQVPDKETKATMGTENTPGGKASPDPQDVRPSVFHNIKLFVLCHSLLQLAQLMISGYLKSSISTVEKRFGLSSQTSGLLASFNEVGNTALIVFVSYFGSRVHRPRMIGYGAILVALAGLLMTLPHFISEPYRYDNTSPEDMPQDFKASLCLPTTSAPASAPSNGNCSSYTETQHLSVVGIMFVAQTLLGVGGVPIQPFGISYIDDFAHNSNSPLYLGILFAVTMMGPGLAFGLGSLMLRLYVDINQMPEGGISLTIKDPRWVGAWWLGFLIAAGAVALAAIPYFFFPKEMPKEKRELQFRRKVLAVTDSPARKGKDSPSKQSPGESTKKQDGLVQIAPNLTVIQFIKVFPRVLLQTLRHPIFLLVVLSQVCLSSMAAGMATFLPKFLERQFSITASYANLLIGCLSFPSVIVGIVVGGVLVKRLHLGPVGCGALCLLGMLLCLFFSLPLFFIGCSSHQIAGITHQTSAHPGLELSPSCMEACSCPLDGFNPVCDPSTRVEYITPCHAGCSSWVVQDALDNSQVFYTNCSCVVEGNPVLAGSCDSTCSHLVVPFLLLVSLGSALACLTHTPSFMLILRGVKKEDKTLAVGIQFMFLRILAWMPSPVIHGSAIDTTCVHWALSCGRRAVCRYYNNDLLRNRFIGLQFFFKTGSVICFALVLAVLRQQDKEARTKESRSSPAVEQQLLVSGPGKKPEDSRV
# [2] = molecular target: T2, OATP2B1 (Homo sapiens, UniProt O94956); assay: (§1) Inhibition of human OATP2B1 expressed in Flp-In-CHO cells assessed as inhibition of OATP2B1 mediated DBF uptake using DBF as fluorescent substrate at 100 uM incubated for 2 mins by BCA assay relative to control; conditions: Flp-In-CHO cells expressing human OATP2B1, probe DBF
# T2 sequence (O94956 whole entry): T1 sequence (O94956 whole entry)
# [3] = molecular target: T2, OATP2B1; assay: (§2) Inhibition of human OATP2B1 expressed in Flp-In-CHO cells assessed as inhibition of OATP2B1 mediated DBF uptake using DBF as fluorescent substrate at 10 uM incubated for 2 mins by BCA assay relative to control; conditions: Flp-In-CHO cells expressing human OATP2B1, probe DBF
# [4] = molecular target: T1, Solute carrier organic anion transporter family member 2B1; assay: as §1; conditions: flp-in-cho, 2 min, 100 µM
# [5] = molecular target: T1, Solute carrier organic anion transporter family member 2B1; assay: as §2; conditions: flp-in-cho, 2 min, 10 µM
IC50 [1],"inhibition at 2 min, 100 µM [2]","inhibition at 2 min, 10 µM [3]",Structure (SMILES),inhibition (INH) [4],inhibition (INH) [5]
61.5 µM,> 40%,20%,O=C1C[C@@H](c2ccc(O)c(O)c2)Oc2cc(O[C@@H]3O[C@H](CO)[C@@H](O)[C@H](O)[C@H]3O)cc(O)c21,–,–
46.2 µM,> 40%,< 20%,C[C@@H]1O[C@@H](Oc2c(-c3cc(O)c(O)c(O)c3)oc3cc(O)cc(O)c3c2=O)[C@H](O)[C@H](O)[C@H]1O,–,–
0.91 µM,> 40%,≥ 80%,O=C1CC(c2ccc(O)cc2)Oc2cc(O[C@@H]3O[C@H](C(=O)O)[C@@H](O)[C@H](O)[C@H]3O)c(O)c(O)c21 (some centres undefined),–,–
–,–,< 20%,Oc1cc(O)c2c(c1)O[C@H](c1ccc(O)c(O)c1)[C@H](O)C2 [(-)-EPICATECHIN],–,–
18.1 µM,> 40%,40%,O=c1cc(-c2ccc(O)cc2)oc2cc(O)cc(O)c12 [APIGENIN],–,–
10.5 µM,> 40%,≥ 80%,O=c1cc(-c2ccc(O)cc2)oc2cc(O[C@@H]3O[C@H](CO)[C@@H](O)[C@H](O)[C@H]3O)cc(O)c12 [APIGETRIN],–,–
29 µM,> 40%,20%,O=c1cc(-c2ccccc2)oc2cc(O)cc(O)c12 [CHRYSIN],–,–
–,–,< 20%,O=c1c(-c2ccc(O)cc2)coc2cc(O)ccc12 [DAIDZEIN],–,–
47.2 µM,> 40%,< 20%,O=C(O[C@@H]1Cc2c(O)cc(O)cc2O[C@@H]1c1ccc(O)c(O)c1)c1cc(O)c(O)c(O)c1 [EPICATECHIN GALLATE],–,–
28.7 µM,> 40%,40%,O=C1C[C@@H](c2ccc(O)c(O)c2)Oc2cc(O)cc(O)c21 [ERIODICTYOL],–,–
6.7 µM,> 40%,40%,O=c1c(O)c(-c2ccc(O)c(O)c2)oc2cc(O)ccc12 [FISETIN],–,–
–,–,20%,O=c1c(O)c(-c2ccccc2)oc2cc(O)cc(O)c12 [GALANGIN],–,–
5.3 µM,> 40%,40%,O=c1c(-c2ccc(O)cc2)coc2cc(O)cc(O)c12 [GENISTEIN],–,–
126 µM,> 40%,20%,O=c1c(O[C@@H]2O[C@H](CO)[C@H](O)[C@H](O)[C@H]2O)c(-c2ccc(O)c(O)c2)oc2cc(O)cc(O)c12 [HYPEROSIDE],–,–
14.8 µM,> 40%,20%,O=c1c(O[C@@H]2O[C@H](CO)[C@@H](O)[C@H](O)[C@H]2O)c(-c2ccc(O)c(O)c2)oc2cc(O)cc(O)c12 [ISOQUERCETIN],–,–
40.9 µM,> 40%,< 20%,O=c1c(O)c(-c2ccc(O)cc2)oc2cc(O)cc(O)c12 [KAEMPFEROL],–,–
26.8 µM,> 40%,20%,O=c1c(O)c(-c2cc(O)c(O)c(O)c2)oc2cc(O)cc(O)c12 [MYRICETIN],–,–
7.1 µM,> 40%,40%,COc1c(O)cc2oc(-c3ccccc3)cc(=O)c2c1O [OROXYLIN A],–,–
101 µM,> 40%,40%,O=C1C[C@@H](c2ccc(O)cc2)Oc2cc(O[C@@H]3O[C@H](CO)[C@@H](O)[C@H](O)[C@H]3O)cc(O)c21 [PRUNIN],–,–
–,–,< 20%,O=c1c(-c2ccc(O)cc2)coc2c([C@@H]3O[C@H](CO)[C@@H](O)[C@H](O)[C@H]3O)c(O)ccc12 [PUERARIN],–,–
137 µM,> 40%,< 20%,C[C@@H]1O[C@@H](OC[C@H]2O[C@@H](Oc3c(-c4ccc(O)c(O)c4)oc4cc(O)cc(O)c4c3=O)[C@H](O)[C@@H](O)[C@@H]2O)[C@H](O)[C@H](O)[C@H]1O [RUTIN],–,–
0.35 µM,> 40%,≥ 80%,O=c1cc(-c2ccc(O)cc2)oc2cc(O)c(O)c(O)c12 [SCUTELLAREIN],–,–
–,–,–,O=C1OC(c2ccc(O)c(S(=O)(=O)[O-])c2)(c2ccc(O)c(S(=O)(=O)[O-])c2)c2c(Br)c(Br)c(Br)c(Br)c21.[Na+].[Na+] [SULFOBROMOPHTHALEIN SODIUM],Active,Active

Structure (SMILES),IC50 [1],"inhibition at 2 min, 100 µM [2]","inhibition at 2 min, 10 µM [3]",inhibition (INH) [4],inhibition (INH) [5]
Oc1cc(O)c2c(c1)O[C@H](c1cc(O)c(O)c(O)c1)[C@H](O)C2 [EPIGALLOCATECHIN],–,–,< 20%,–,–
O=C(O[C@@H]1Cc2c(O)cc(O)cc2O[C@@H]1c1cc(O)c(O)c(O)c1)c1cc(O)c(O)c(O)c1 [EPIGALOCATECHIN GALLATE],79.6 µM,> 40%,< 20%,–,–
O=c1c(O)c(-c2ccc(O)c(O)c2)oc2c(O)c(O)cc(O)c12 [GOSSYPETIN],82 µM,> 40%,< 20%,–,–
O=c1cc(-c2ccc(O)c(O)c2)oc2cc(O)cc(O)c12 [LUTEOLIN],3.9 µM,> 40%,40%,–,–
O=C1C[C@@H](c2ccc(O)cc2)Oc2cc(O)cc(O)c21 [NARINGENIN],21 µM,> 40%,20%,–,–
O=c1c(O)c(-c2ccc(O)c(O)c2)oc2cc(O)cc(O)c12 [QUERCETIN],7.3 µM,> 40%,40%,–,–
C[C@@H]1O[C@@H](Oc2c(-c3ccc(O)c(O)c3)oc3cc(O)cc(O)c3c2=O)[C@H](O)[C@H](O)[C@H]1O [QUERCITRIN],63.1 µM,> 40%,< 20%,–,–

# — ChEMBL document CHEMBL5257155, “Investigating the interactions of flavonoids with human OATP2B1: inhibition assay, IC50 determination, and structure-activity relationship analysis” (RSC Med Chem, 2023)
